The results in this text go back to ChEMBL document CHEMBL1134308, “Novel tropane-based irreversible ligands for the dopamine transporter” (J Med Chem, 2001).

Structures are written as SMILES.

The target in this experiment is Sodium-dependent dopamine transporter (Rattus norvegicus, UniProt P23977). Kind of experiment: Displacement of [3H]WIN-35 428 binding at dopamine transporter (DAT) in rat caudate putamen. The experiment is classed as tissue-based. In general terms: Loss of bound radioactivity is the signal in a displacement assay; it reports binding, not function.
Sodium-dependent dopamine transporter, sequence (P23977 whole entry): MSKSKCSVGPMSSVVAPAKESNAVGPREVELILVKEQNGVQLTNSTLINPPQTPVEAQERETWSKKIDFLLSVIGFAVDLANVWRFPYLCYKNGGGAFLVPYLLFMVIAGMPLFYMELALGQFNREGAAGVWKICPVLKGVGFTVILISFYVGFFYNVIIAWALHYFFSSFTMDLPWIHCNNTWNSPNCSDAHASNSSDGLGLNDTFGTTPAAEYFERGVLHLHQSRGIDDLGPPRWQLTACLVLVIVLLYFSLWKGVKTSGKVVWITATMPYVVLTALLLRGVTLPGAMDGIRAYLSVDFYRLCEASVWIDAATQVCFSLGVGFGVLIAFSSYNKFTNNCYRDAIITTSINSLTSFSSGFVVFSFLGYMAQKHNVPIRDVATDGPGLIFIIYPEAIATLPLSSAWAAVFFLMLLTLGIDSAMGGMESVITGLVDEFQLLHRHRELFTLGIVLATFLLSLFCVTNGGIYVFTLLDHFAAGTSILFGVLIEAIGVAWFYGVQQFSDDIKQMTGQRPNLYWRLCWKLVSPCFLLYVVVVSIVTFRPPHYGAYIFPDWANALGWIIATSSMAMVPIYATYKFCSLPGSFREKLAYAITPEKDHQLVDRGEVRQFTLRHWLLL
By Ki is commonly meant a measure of affinity in units of concentration, obtained from inhibition or displacement. Lower therefore signals a stronger hold on the target. Regarding `COC(=O)C1C(c2ccc(Cl)cc2)CC2CCC1N2CCCCc1ccc(N=[N+]=[N-])c(I)c1` (stereo unspecified), the Ki stood at 33 nM. The compound `CN1C2CCC1C(C(=O)OCCc1ccc(N=[N+]=[N-])c(I)c1)C(c1ccc(Cl)cc1)C2` (stereo unspecified) had an inhibition constant Ki of 14.5 nM. `COC(=O)C1C(c2ccc(Cl)cc2)CC2CCC1N2CCCCc1ccc(N=C=S)cc1` (stereo unspecified) registered a Ki of 31.5 nM.

Turning to `[N-]=[N+]=Nc1ccc(CCCN2[C@@H]3CC[C@H]2C[C@@H](OC(c2ccc(F)cc2)c2ccc(F)cc2)C3)cc1I`, the inhibition constant Ki was found to be 284 nM. To `Fc1ccc(C(O[C@H]2C[C@H]3CC[C@@H](C2)N3CCCc2ccc(N=C=S)cc2)c2ccc(F)cc2)cc1` belongs 611 nM. With `Fc1ccc(C(O[C@H]2C[C@H]3CC[C@@H](C2)N3CCCCc2ccc(N=C=S)cc2)c2ccc(F)cc2)cc1`, the Ki was 420 nM.
